Experimental data from patent publication US8946261B2, “Substituted 1, 2, 3, 4-tetrahydroquinolin-7-yl carbamates as acetylcholinesterase inhibitors for treatment of Alzheimer's disease” (priority 2011, dated 2015).

Experiments:
[1] = molecular target: T1, Acetylcholinesterase (AChE) (Mus musculus, UniProt P21836); assay: Acetylcholinesterase (AChE) assay in brain (in vitro), Ellman method; format: biochemical, Swiss albino mice; details: for inhibition at 10 µM / inhibition at 100 µM: read-out: % Inhibition of AChE enzyme; for AChE inhibitory activity compared to rivastigmine: comparison with rivastigmine
T1 construct: A 10% (w/v) homogenate of brain was prepared; from tissue; host or cells: whole brain of adult Swiss albino mice; supernatant (100,000 g) of the 1% Triton X-100 treated homogenate
T1 sequence (P21836 32-614): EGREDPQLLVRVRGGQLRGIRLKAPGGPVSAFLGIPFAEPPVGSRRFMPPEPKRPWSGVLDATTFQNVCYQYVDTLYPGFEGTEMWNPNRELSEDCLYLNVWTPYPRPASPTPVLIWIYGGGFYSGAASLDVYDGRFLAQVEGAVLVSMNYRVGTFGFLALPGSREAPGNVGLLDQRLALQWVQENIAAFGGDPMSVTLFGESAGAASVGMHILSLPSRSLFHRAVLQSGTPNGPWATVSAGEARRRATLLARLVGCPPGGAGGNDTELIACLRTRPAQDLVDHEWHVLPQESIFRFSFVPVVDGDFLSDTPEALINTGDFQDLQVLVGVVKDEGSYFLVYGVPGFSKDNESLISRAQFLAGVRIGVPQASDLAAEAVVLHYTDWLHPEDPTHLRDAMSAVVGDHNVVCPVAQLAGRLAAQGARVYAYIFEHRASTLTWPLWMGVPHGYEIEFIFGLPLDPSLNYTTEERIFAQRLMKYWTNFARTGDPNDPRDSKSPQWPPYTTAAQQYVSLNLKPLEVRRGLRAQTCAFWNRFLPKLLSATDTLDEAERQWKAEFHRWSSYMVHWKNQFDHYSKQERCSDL
Procedure: Acetylcholinesterase (AChE) Assay in Brain (In Vitro)
The mice were perfused under mild ether anesthesia through heart with ice cooled normal saline (0.9% NaCl) to remove blood-born cholinesterase from the brain. After perfusion the whole brain was taken out. A 10% (w/v) homogenate of brain was prepared first by homogenizing in an Ultra-Turrax T25 homogenizer at a speed of 9500 rpm thrice giving intervals for few seconds in between the runs, with sodium phosphate buffer (0.03 M, pH-7)).
The brain homogenate in volume of 500 μl was mixed with 1% Triton X-100 (1% w/v in 0.03M sodium phosphate buffer, pH-7) and centrifuged at 100,000 g at 4° C. in a Beckman Ultracentrifuge (LE 80, USA), using a fixed angle rotor (80 ti) for 60 min. Supernatant was collected and stored at 4° C. for acetylcholinesterase estimation.
The assay for each sample was run in triplicate and each experiment was performed twice.
The specific activity of AChE is expressed in μM/min/mg of protein.
The test substance (dissolved in ethanol) was incubated with enzyme source in different concentrations ([…]) for 30 min at 37° C. prior to obtain kinetic profile of AChE activity. […] The AChE inhibitory activity was calculated on the basis of % decrease in AChE activity from control values i.e. AChE activity without incubation with any standard or test drug.
The results are expressed as mean±S.E.M. Statistical analysis of passive avoidance values were performed by t-test. The IC50 value was calculated by non linear regression method using GraphPad Prism software.

Swiss albino male mice = assay: Gross behavioral study; details: for cholinergic symptoms / side effects: upto 24 hrs of drug administration; for cholinergic symptoms: 25 mg/kg; for side effects: 50 mg/kg

SMILES	IC50 [1] [µM]	inhibition at 10 µM [1] [%]	inhibition at 100 µM [1] [%]	other results
CN1CCCc2ccc(OC(=O)Nc3ccccc3F)cc21 [Compound 8l, 1-methyl-1,2,3,4-tetrahydroquinolin-7-yl 2-fluorophenylcarbamate]	55.9 ± 2.97	32.8	58.8	–
Cc1ccccc1NC(=O)Oc1ccc2c(c1)N(Cc1ccccc1)CCC2 [Compound 8a, 1-benzyl-1,2,3,4-tetrahydroquinolin-7-yl 2-methylphenylcarbamate]	13 ± 0.66	44.1	90.4	–
O=C(Nc1ccccc1F)Oc1ccc2c(c1)NCCC2 [Compound 9b, 1,2,3,4-tetrahydroquinolin-7-yl 2-fluorophenylcarbamate]	76.3 ± 0.9	10.5	55.7	–
CCN(C)C(=O)Oc1cccc([C@H](C)N(C)C)c1 [Rivastigmine]	–	–	–	overall locomotor activity (Swiss albino male mice; 1 mg/kg): locomotor activity was normal as control group.; peripheral cholinergic symptoms / tolerability (Swiss albino male mice; 1 mg/kg): 1 mg/kg: No peripheral cholinergic symptoms. Overall; duration of symptom phase (Swiss albino male mice; 2 mg/kg): 25 to 30 min; onset of symptoms after dosing (Swiss albino male mice; 2 mg/kg): 2 mg/kg: 5-10 min after dosing animals become; recovery to normal after dosing (Swiss albino male mice; 2 mg/kg): animals become normal one hr after; time gap between cholinergic side effect and death (Swiss albino male mice; 4 mg/kg): administration. There was no detectable time gap; mortality (Swiss albino male mice; 4 mg/kg oral): 100%; time to mortality after drug administration (Swiss albino male mice; 4 mg/kg oral): ≤ 15 min; peripheral side effects (Swiss albino male mice; oral dose of 3 mg/kg): some peripheral side effects
C#CCN1CCCc2ccc(OC(=O)Nc3ccccc3C)cc21 [Compound 10a, 1-(prop-2-ynyl)-1,2,3,4-tetrahydroquinolin-7-yl 2-methylphenylcarbamate]	13.3 ± 3.33	52.5	60.8	–
C#CCN1CCCc2ccc(OC(=O)Nc3ccccc3Br)cc21 [Compound 10c, 1-(prop-2-ynyl)-1,2,3,4-tetrahydroquinolin-7-yl 2-bromophenylcarbamate]	2.82 ± 0.04	71.7	87.3	AChE inhibitory activity compared to rivastigmine [1]: almost equal
C#CCN1CCCc2ccc(OC(=O)Nc3ccc(Cl)cc3)cc21 [Compound 10f, 1-(prop-2-ynyl)-1,2,3,4-tetrahydroquinolin-7-yl 4-chlorophenylcarbamate]	756 ± 208	25.4	30.9	–
COc1ccc(NC(=O)Oc2ccc3c(c2)N(Cc2ccccc2)CCC3)cc1 [Compound 8j, 1-benzyl-1,2,3,4-tetrahydroquinolin-7-yl 4-methoxyphenylcarbamate]	> 100	1.41	3.59	–
C#CCN1CCCc2ccc(OC(=O)NCCCCCCC)cc21 [Compound 10b, 1-(prop-2-ynyl)-1,2,3,4-tetrahydroquinolin-7-yl heptylcarbamate]	7.59 ± 0.62	55.5	77.2	tolerability (Swiss albino male mice; 125 mg/kg oral dose): Well tolerated; cholinergic symptoms / side effects (Swiss albino male mice; 125 mg/kg oral dose): No cholinergic symp-; AChE inhibitory activity, fold lower compared to the drug Rivastigmine ([1]; fold lower than Rivastigmine): 7 fold
O=C(Nc1ccccc1F)Oc1ccc2c(c1)N(Cc1ccccc1)CCC2 [Compound 8c, 1-benzyl-1,2,3,4-tetrahydroquinolin-7-yl 2-fluorophenylcarbamate]	> 100	9.87	19.5	–
C#CCN1CCCc2ccc(OC(=O)N(C)C)cc21 [Compound 10g, 1-(prop-2-ynyl)-1,2,3,4-tetrahydroquinolin-7-yl dimethylcarbamate]	0.68 ± 0.02	94.2	96.5	AChE inhibitory activity compared to rivastigmine [1]: slightly better
C#CCN1CCCc2ccc(OC(=O)Nc3ccccc3OC)cc21 [Compound 10e, 1-(prop-2-ynyl)-1,2,3,4-tetrahydroquinolin-7-yl 2-methoxyphenylcarbamate]	0.92 ± 0.12	95.4	96.3	tolerability (Swiss albino male mice; 125 mg/kg oral dose): Well tolerated; cholinergic symptoms / side effects (Swiss albino male mice; 125 mg/kg oral dose): No cholinergic symp-; AChE inhibitory activity compared to rivastigmine [1]: slightly better
O=C(Nc1ccc(Cl)cc1)Oc1ccc2c(c1)NCCC2 [Compound 9d, 1,2,3,4-tetrahydroquinolin-7-yl 4-chlorophenylcarbamate]	126 ± 4.17	1.86	38.9	–
Cc1ccc(NC(=O)Oc2ccc3c(c2)NCCC3)cc1 [Compound 9a, 1,2,3,4-tetrahydroquinolin-7-yl 4-methylphenylcarbamate]	> 100	0.01	1.45	–
CCCCCCCNC(=O)Oc1ccc2c(c1)N(Cc1ccccc1)CCC2 [Compound 8h, 1-benzyl-1,2,3,4-tetrahydroquinolin-7-yl heptylcarbamate]	> 100	5.2	10.1	–
Nc1c2c(nc3ccccc13)CCCC2 [Tacrine]	–	–	–	tolerability (Swiss albino male mice; 5 mg/kg dose): well tolerated at 5 mg/kg dose
Cc1ccc(NC(=O)Oc2ccc3c(c2)N(Cc2ccccc2)CCC3)cc1 [Compound 8b, 1-benzyl-1,2,3,4-tetrahydroquinolin-7-yl 4-methylphenylcarbamate]	354 ± 21.5	5.41	25.1	–
C#CCN1CCCc2ccc(OC(=O)Nc3c(C)cccc3C(C)C)cc21 [Compound 10d, 1-(prop-2-ynyl)-1,2,3,4-tetrahydroquinolin-7-yl 2-isopropyl-6-methylphenylcarbamate]	> 100	17.9	22.5	–
O=C(Nc1ccc(Cl)cc1)Oc1ccc2c(c1)N(Cc1ccccc1)CCC2 [Compound 8f, 1-benzyl-1,2,3,4-tetrahydroquinolin-7-yl 4-chlorophenylcarbamate]	> 100	2.1	12.5	–
O=C(Nc1ccc(F)cc1)Oc1ccc2c(c1)N(Cc1ccccc1)CCC2 [Compound 8d, 1-benzyl-1,2,3,4-tetrahydroquinolin-7-yl 4-fluorophenylcarbamate]	> 100	5.23	15.5	–
COc1cc2c(cc1OC)C(=O)C(CC1CCN(Cc3ccccc3)CC1)C2 (centres unmarked) [Donepezil]	–	–	–	tolerability (Swiss albino male mice; 5 mg/kg dose): well tolerated; cholinergic symptoms (Swiss albino male mice): Moderate cholinergic; cholinergic symptoms (Swiss albino male mice; listed as donepezil): moderate cholinergic symptoms; side effects (Swiss albino male mice): severe side effects were found initially and all; side effects (Swiss albino male mice; listed as donepezil): severe side effects were found initially
O=C(Nc1ccc(F)cc1)Oc1ccc2c(c1)NCCC2 [Compound 9c, 1,2,3,4-tetrahydroquinolin-7-yl 4-fluorophenylcarbamate]	327 ± 15.9	1.15	21.6	–
COc1ccccc1NC(=O)Oc1ccc2c(c1)N(Cc1ccccc1)CCC2 [Compound 8i, 1-benzyl-1,2,3,4-tetrahydroquinolin-7-yl 2-methoxyphenylcarbamate]	298 ± 12.7	2.5	24.1	–
